Reference: patent publication US20100249234A1, “METHODS OF REDUCING VIRULENCE IN BACTERIA” (UWM RESEARCH FOUNDATION, INC., priority 2007, published 2010)

Key:
Format in all cases: cell-based, Dickeya dadantii 3937 (Ech3937)
[1] = test system: gacA mRNA; test: qRT-PCR relative mRNA level of gacA; conditions: MM supplemented with OCA, p>0.5 (FIG. 4)
Protocol: (§1) Bacterial strains were grown in MM. Total RNA from the bacterial cells was isolated by using the TRI reagent method (Sigma, Mo.) and treated with Turbo DNA-free DNase kits (Ambion, TX) as described (Peng et al., 2006). An iScript cDNA Synthesis Kit (Bio-Rad, CA) was used to synthesize cDNA from 0.5 μg of treated total RNA. The Real Master Mix (Eppendorf, Westbury, N.Y.) was used for qRT-PCR reaction to quantify the cDNA level of target genes in different samples. The rplU was used as the endogenous control for data analysis. qRT-PCR data were analyzed using Relative Expression Software Tool as described (Pfaffl, M. W., Horgan, G. W., and Dempfle, L. (2002) Relative expression software tool (REST) for group-wise comparison and statistical analysis of relative expression results in real-time PCR. Nucleic Acids Res 30:e36.).

[2] = test system: hrpY mRNA; test: qRT-PCR relative mRNA level of hrpY; conditions: MM supplemented with OCA, p>0.5 (FIG. 4)
Protocol: as §1

[3] = test system: hrpL promoter; test: hrpL promoter activity, GFP reporter plasmid phrpL, flow cytometry (FACS)
Protocol: (§2) FACS analysis of promoter activity of dspE, hrpA, hrpL, hrpN, and hrpS was carried out as described (Peng et al., 2006). Briefly, the wild-type Ech3937 and the mutant strains carrying the promoter reporter plasmid were grown on LB broth at 28° C. overnight and transferred to appropriate media. For FACS analysis, samples were collected by centrifugation, washed with 1× phosphate buffer saline (PBS) at 13,000 rpm for 1 min, and re-suspended in 1×PBS to ca 10^6 CFU/ml prior to being run in a FACS Calibur flow cytometer (BD Biosciences, CA). Three replicates were performed for each treatment.
Since OCA and TCA induced the expression of hrpN, the effect of these two phenolic compounds on the expression of hrpA, hrpL, and hrpS was investigated further. […] GFP intensity was determined on gated populations of bacterial cells by flow cytometry and analyzed with the Cell Quest software (BD Biosciences, San Jose, Calif.). The lines labeled “1” stand for the GFP expression control base level of the Ech3937 containing pPROBE-AT vector; lines labeled “2” stand for the promoter activity of hrpS, hrpL, hrpA and hrpN in Ech3937 in MM; lines labeled “3” stand for the promoter activity of Ech3937 in MM supplemented with 0.1 mM OCA; lines labeled “4” stand for the promoter activity of hrpL mutant WPP96 in MM; lines labeled “5” stand for the promoter activity of hrpL mutant WPP96 in MM supplemented with 0.1 mM OCA. Values are representative of at least two experiments. […] Compared with MM alone, the average GFP fluorescence intensity of bacterial cells of Ech3937 (phrpA) was doubled when 0.1 mM of OCA and TCA were added to the medium (Table 4; FIG. 3). […] The mrp, whose protein product has an ATPase conserved domain (2e-06), was used as a reference gene in this study.

[4] = test system: hrpA promoter; test: hrpA promoter activity, GFP reporter plasmid phrpA, flow cytometry (FACS); conditions: for GFP intensity (Mean Fluorescence Intensity) of Ech-Rif (phrpA) / GFP intensity (Mean Fluorescence Intensity) of Ech137 (phrpA): MM + 0.1 mM OCA; for GFP intensity (Mean Fluorescence Intensity) of Ech137 (phrpA): gacA mutant Ech137; for GFP intensity (Mean Fluorescence Intensity) of WPP96 (phrpA): hrpL mutant WPP96; for GFP intensity (Mean Fluorescence Intensity) of WPP90 (phrpA): hrpS mutant WPP90; for GFP intensity (Mean Fluorescence Intensity) of WPP67 (phrpA): hrpX mutant WPP67; for GFP intensity (Mean Fluorescence Intensity) of WPP92 (phrpA): hrpY mutant WPP92
Protocol: as §2
To identify potential compounds that repress activation of T3SS, analogs and isomers of TCA and intermediates of salicylic acid and phenypropanoid biosynthesis pathways in plants were further screened for their effect on Ech3937 hrpA expression by flow cytometry (Table 9). A green fluorescent protein (GFP) reporter plasmid phrpA (pProbe-AT derivative with PCR fragment containing hrpA promoter region) was constructed, resulting in a transcriptional fusion of hrpA promoter with GFP gene. Bacterial cells containing phrpA plasmid were grown in MM supplemented with 0.1 mM of each compound. GFP intensity, which is a measurement of hrpA promoter activity, was measured by flow cytometry.

[5] = test system: hrpN promoter; test: hrpN promoter activity, GFP reporter plasmid phrpN, flow cytometry (FACS); conditions: for GFP intensity (Mean Fluorescence Intensity) of WPP96 (phrpN): hrpL mutant WPP96; for GFP intensity (Mean Fluorescence Intensity) of Ech138 (phrpN): iaaM mutant Ech138, MM + 0.1 mM OCA; for GFP intensity (Mean Fluorescence Intensity) of WPP90 (phrpN): hrpS mutant WPP90; for GFP intensity (Mean Fluorescence Intensity) of WPP67 (phrpN): hrpX mutant WPP67; for GFP intensity (Mean Fluorescence Intensity) of WPP92 (phrpN): hrpY mutant WPP92
[6] = test system: hrpN mRNA; test: qRT-PCR relative mRNA level of hrpN; conditions: 0.1 mM PCA, P=0.001 (FIG. 14)
Protocol: as §1

[7] = test system: HrpN; test: HrpN protein expression; conditions: MM supplemented with 0.1 mM of PCA (FIG. 15)
Text: To further elucidate whether T3SS gene expression is mainly regulated through the HrpX/Y-HrpS-HrpL regulatory pathway, the expression of hrpA and hrpN in wild-type Ech3937 and hrpX (WPP67), hrpY (WPP92), hrpS (WPP90), and hrpL (WPP96) mutants in MM were examined. […] Similar expression of hrpA and hrpN was observed among WPP67, WPP92, WPP90 and WPP96 carrying phrpA and phrpN grown in MM and MM supplemented with PCA. […] Since PCA represses the expression of several T3SS genes such as hrpN, the effect of PCA on protein production of HrpN was further examined.

[8] = MM + 0.1 mM compound, 12 h (Table 4)
[9] = MM + 0.1 mM compound, 6 h (Table 9)
[10] = MM + 0.1 mM compound, 12 h (Table 9)
[11] = MM + 0.1 mM compound, 24 h (Table 9)
[12] = MM + 0.1 mM PCA (MMPCA), 12 h (Table 10)
[13] = MM + 0.1 mM PCA (MMPCA), 24 h (Table 10)
[14] = MM + 0.1 mM PCA (MMPCA), 12 h (Table 11)
[15] = MM + 0.1 mM PCA (MMPCA), 24 h (Table 11)

## O=C(O)/C=C/c1ccccc1O [OCA, o-coumaric acid]
[1]
  gacA gene expression, MM vs supplemented MM (qRT-PCR): No significant difference
[2]
  hrpY gene expression, MM vs supplemented MM (qRT-PCR): No significant difference
[3]; Ech3937, MM + 0.1 mM compound, 12 h
  promoter activity of hrpL compared with MM alone: slightly higher promoter activity
[3]; [8]
  GFP intensity (Mean Fluorescence Intensity) of Ech3937 (phrpL): 19 ± 0
[3]; hrpL mutant WPP96, MM + 0.1 mM compound, 12 h (Table 4)
  GFP intensity (Mean Fluorescence Intensity) of WPP96 (phrpL): 313 ± 29
[4]; 0.1 mM compound, 12 h
  average GFP fluorescence intensity of Ech3937 (phrpA) compared with MM alone: doubled
[4]; 6 h
  GFP intensity (Mean Fluorescence Intensity) of Ech-Rif (phrpA): 18 ± 0
  GFP intensity (Mean Fluorescence Intensity) of Ech137 (phrpA): 4.9 ± 0.1
[4]; 12 h
  GFP intensity (Mean Fluorescence Intensity) of Ech-Rif (phrpA): 51 ± 2
  GFP intensity (Mean Fluorescence Intensity) of Ech137 (phrpA): 5.9 ± 0.1
[4]; 24 h
  GFP intensity (Mean Fluorescence Intensity) of Ech-Rif (phrpA): 49 ± 1
  GFP intensity (Mean Fluorescence Intensity) of Ech137 (phrpA): 8.3 ± 0
[4]; [9]
  expression of hrpA, GFP intensity (Mean Fluorescence Intensity), Ech3937 carrying phrpA: 15.5 ± 1.1
[4]; [8]
  GFP intensity (Mean Fluorescence Intensity) of Ech3937 (phrpA): 82 ± 1
  GFP intensity (Mean Fluorescence Intensity) of WPP96 (phrpA): 6.5 ± 0.2
[4]; [10]
  expression of hrpA, GFP intensity (Mean Fluorescence Intensity), Ech3937 carrying phrpA: 115.5 ± 7.9
[4]; [11]
  expression of hrpA, GFP intensity (Mean Fluorescence Intensity), Ech3937 carrying phrpA: 225.8 ± 15.6
[5]; 0.05 mM compound added to MM, 12 h and 24 h (FIGS. 2A, 2B)
  increase of average GFP fluorescence intensity of Ech3937 (phrpN) compared with MM alone: approximately 4 fold
[5]; 0.1 mM compound in MM, 12 h (FIG. 5)
  induction of hrpN expression in Ech3937 and in hrpX (WPP67), hrpY (WPP92), hrpS (WPP90) mutants: induced the expression of hrpN in Ech3937, but not in hrpX, hrpY, and hrpS mutants
[5]; MM + 0.1 mM OCA (MMOCA), 6 h (Table 5)
  GFP intensity (Mean Fluorescence Intensity) of Ech3937 (phrpN): 31 ± 3
[5]; MM + 0.1 mM OCA (MMOCA), 12 h (Table 5)
  GFP intensity (Mean Fluorescence Intensity) of Ech3937 (phrpN): 91 ± 8
[5]; MM + 0.1 mM OCA (MMOCA), 24 h (Table 5)
  GFP intensity (Mean Fluorescence Intensity) of Ech3937 (phrpN): 78 ± 8
[5]; [8]
  GFP intensity (Mean Fluorescence Intensity) of Ech3937 (phrpN): 94 ± 3
  GFP intensity (Mean Fluorescence Intensity) of WPP96 (phrpN): 3.3 ± 0.1
[5]; 6 h
  GFP intensity (Mean Fluorescence Intensity) of Ech138 (phrpN): 9.1 ± 1.6
[5]; 12 h
  GFP intensity (Mean Fluorescence Intensity) of Ech138 (phrpN): 33 ± 5
[5]; 24 h
  GFP intensity (Mean Fluorescence Intensity) of Ech138 (phrpN): 39 ± 5

## O=C(O)/C=C/c1ccc(O)cc1 [PCA, p-coumaric acid]
[3]; [12]
  GFP intensity (Mean Fluorescence Intensity) of Ech3937 (phrpL): 7.8 ± 0.1
[3]; [13]
  GFP intensity (Mean Fluorescence Intensity) of Ech3937 (phrpL): 11.1 ± 3.3
[4]; 0.05 and 0.1 mM of PCA, 12 h and 24 h (FIGS. 16A, 16B)
  reduction of average GFP fluorescence intensity of Ech3937 (phrpA) compared with MM alone: more than 4 fold
[4]; [12]
  GFP intensity (Mean Fluorescence Intensity) of Ech3937 (phrpA): 10.3 ± 1.3
[4]; [14]
  GFP intensity (Mean Fluorescence Intensity) of Ech3937 (phrpA): 9.2 ± 0.4
[4]; [13]
  GFP intensity (Mean Fluorescence Intensity) of Ech3937 (phrpA): 18.5 ± 3.5
[4]; [15]
  GFP intensity (Mean Fluorescence Intensity) of Ech3937 (phrpA): 12.7 ± 0.3
[4]; MM + 0.1 mM compound (Table 9)
  effect on expression of hrpA (screen result): inhibitors of the expression of hrpA
[4]; [9]
  expression of hrpA, GFP intensity (Mean Fluorescence Intensity), Ech3937 carrying phrpA: 6.9 ± 0.1
[4]; [10]
  expression of hrpA, GFP intensity (Mean Fluorescence Intensity), Ech3937 carrying phrpA: 10.2 ± 0.4
[4]; [11]
  expression of hrpA, GFP intensity (Mean Fluorescence Intensity), Ech3937 carrying phrpA: 11.4 ± 1.0
[4]; PCA at 0.001, 0.005 and 0.01 (FIGS. 16A, 16B)
  reduction of GFP fluorescence intensity of Ech3937 (phrpA): did not result in substantial reduction
[4]; MM + 0.1 mM PCA, 12 h
  GFP intensity (Mean Fluorescence Intensity) of WPP96 (phrpA): 7.3 ± 0.1
  GFP intensity (Mean Fluorescence Intensity) of WPP90 (phrpA): 7.9 ± 0.2
  GFP intensity (Mean Fluorescence Intensity) of WPP67 (phrpA): 7.9 ± 0.2
  GFP intensity (Mean Fluorescence Intensity) of WPP92 (phrpA): 6.9 ± 0.1
[4]; MM + 0.1 mM PCA, 24 h
  GFP intensity (Mean Fluorescence Intensity) of WPP96 (phrpA): 9.0 ± 1.6
  GFP intensity (Mean Fluorescence Intensity) of WPP90 (phrpA): 9.3 ± 0.2
  GFP intensity (Mean Fluorescence Intensity) of WPP67 (phrpA): 9.0 ± 1.3
  GFP intensity (Mean Fluorescence Intensity) of WPP92 (phrpA): 9.4 ± 0.7
[5]; [12]
  GFP intensity (Mean Fluorescence Intensity) of Ech3937 (phrpN): 6.8 ± 0.8
[5]; [14]
  GFP intensity (Mean Fluorescence Intensity) of Ech3937 (phrpN): 4.3 ± 0.1
[5]; [13]
  GFP intensity (Mean Fluorescence Intensity) of Ech3937 (phrpN): 11.3 ± 3.4
[5]; [15]
  GFP intensity (Mean Fluorescence Intensity) of Ech3937 (phrpN): 8.8 ± 2.1
[5]; MM supplemented with 0.1 mM PCA
  promoter activity (expression) of hrpN compared with MM alone: reduced expression
[5]; MM + 0.1 mM PCA, 12 h
  GFP intensity (Mean Fluorescence Intensity) of WPP96 (phrpN): 3.0 ± 0.0
  GFP intensity (Mean Fluorescence Intensity) of WPP90 (phrpN): 3.5 ± 0.1
  GFP intensity (Mean Fluorescence Intensity) of WPP67 (phrpN): 3.5 ± 0.2
  GFP intensity (Mean Fluorescence Intensity) of WPP92 (phrpN): 3.6 ± 0.1
[5]; MM + 0.1 mM PCA, 24 h
  GFP intensity (Mean Fluorescence Intensity) of WPP96 (phrpN): 4.3 ± 0.1
  GFP intensity (Mean Fluorescence Intensity) of WPP90 (phrpN): 5.1 ± 0.1
  GFP intensity (Mean Fluorescence Intensity) of WPP67 (phrpN): 6.3 ± 0.7
  GFP intensity (Mean Fluorescence Intensity) of WPP92 (phrpN): 5.5 ± 0.3
[6]
  hrpN mRNA compared with MM alone (normalized to 1), qRT-PCR: significantly lower amount of mRNA
[7]
  amount of HrpN protein compared with MM alone: lower amount of HrpN
